{"source": "PubChem BioAssay AID588714", "about": "(Southern Research Specialized Biocontainment Screening …, 2011)", "note": "Records with an inconclusive call do not appear. Calls of active or inactive are those of the source.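 The calls were made as follows: active = viability below 80% at one or more tested concentrations, meaning the compound is toxic to the cells; inconclusive = replicate runs disagree on whether viability fell below 80%; inactive = viability of 80% or more at every dose.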", "data": [{"system": "not listed separately", "assay": "viability reduction of Vero E6 cells – cell-based, M18 aspartyl aminopeptidase campaign, cytotoxicity control for P. falciparum PFM18AAP inhibitor project, dose response (AID 588714)", "conditions": "Vero E6 viability, CellTiter-Glo luminescence, 72 h; at 25 µM (top of the series)", "values": [{"smiles": "O=C(O)CCCNc1c2ccccc2nc2ccccc12", "viability": "103% (inactive)"}, {"smiles": "O=C(O)CCCCNc1c2ccccc2nc2ccccc12", "viability": "96.8% (inactive)"}]}, {"system": "not listed separately", "assay": "viability reduction of Vero E6 cells – cell-based, M18 aspartyl aminopeptidase campaign, cytotoxicity control for P. falciparum PFM18AAP inhibitor project, dose response (AID 588714)", "conditions": "Vero E6 viability, CellTiter-Glo luminescence, 72 h; at 50 µM (top of the series)", "values": [{"smiles": "Oc1ccc(CCN2CCc3ccccc3C2)cc1O", "viability": "85.7% (inactive)"}, {"smiles": "Cc1c(O)c(=O)ccn1CCNc1c2ccccc2nc2ccccc12", "viability": "89.4% (inactive)"}, {"smiles": "CCC(C)C(=O)Nc1ccccc1N", "note": "(stereo not given)", "viability": "105% (inactive)"}, {"smiles": "O=c1cc(CO)oc(CN2CCCCC2)c1O", "viability": "99.7% (inactive)"}, {"smiles": "COc1ccc(CCN2CCc3ccccc3C2)cc1OC", "viability": "86.9% (inactive)"}, {"smiles": "COc1ccc(CCN(C)c2ccncc2)cc1OC", "viability": "83.9% (inactive)"}, {"smiles": "CN(CCc1ccc(O)c(O)c1)c1ccncc1", "viability": "99.3% (inactive)"}, {"smiles": "COc1ccc(CCNc2ccncc2)cc1OC", "viability": "87.5% (inactive)"}, {"smiles": "CCC(C)C(=O)Nc1ccccc1O", "note": "(stereo not given)", "viability": "99.8% (inactive)"}, {"smiles": "COc1ccc(CCN2CCN(C)CC2)cc1OC", "viability": "98% (inactive)"}, {"smiles": "CCC(C)c1ccc(N)c(O)c1", "note": "(stereo not given)", "viability": "103% (inactive)"}, {"smiles": "COc1ccc(CCNC2CCN(C)CC2)cc1OC", "viability": "97.5% (inactive)"}, {"smiles": "O=C1OCCN1CCc1nc(-c2ccc(O)c(O)c2)cs1", "viability": "92.6% (inactive)"}, {"smiles": "COc1ccc(CCC(=O)O)cc1OC", "viability": "94.6% (inactive)"}, {"smiles": "O=C(c1ccco1)N1CCN(Cc2cc(=O)c(O)co2)CC1", "viability": "92.2% (inactive)"}, {"smiles": "O=C(c1ccco1)N1CCN(Cc2cc(=O)c(O)c[nH]2)CC1", "viability": "100% (inactive)"}, {"smiles": "COc1ccc(CC(=O)O)cc1OC", "viability": "108% (inactive)"}, {"smiles": "Cc1c(-c2ccccc2)[nH]c(-c2ccc(O)c(O)c2)[n+]1O", "viability": "97.2% (inactive)"}, {"smiles": "Nc1cc(C(=O)c2ccccc2)ccc1O", "viability": "104% (inactive)"}, {"smiles": "Oc1ccc(CCNc2c3c(nc4ccccc24)CCCC3)cc1O", "viability": "92.2% (inactive)"}]}, {"system": "Vero E6 viability, CellTiter-Glo luminescence, 72 h", "assay": "viability reduction of Vero E6 cells – cell-based, M18 aspartyl aminopeptidase campaign, cytotoxicity control for P. falciparum PFM18AAP inhibitor project, dose response (AID 588714)", "conditions": "not given", "units": {"CC50": "µM"}, "values": [{"smiles": "Oc1ccc(CCNc2c3ccccc3nc3ccccc23)cc1", "CC50": 7.34}, {"smiles": "O=S1(=O)c2ccccc2-c2cc(-c3nc(-c4ccc(O)c(O)c4)[nH]c3-c3ccccc3)ccc21", "CC50": 19.4}, {"smiles": "Oc1ccc(CCNc2cccc3ccccc23)cc1O", "CC50": 16.5}, {"smiles": "NCCNc1c2ccccc2nc2ccccc12", "CC50": 45.3}, {"smiles": "COc1ccc(CCN(C)c2c3ccccc3nc3ccccc23)cc1OC", "CC50": 15.9}, {"smiles": "Oc1ccc(CCNc2ccc3ccccc3c2)cc1O", "CC50": 28.3}, {"smiles": "O=c1ccc2cc(O)c(O)cc2o1", "CC50": 38.2}, {"smiles": "COc1ccc(CCNc2c3ccccc3nc3ccccc23)cc1OC", "CC50": 12.6}, {"smiles": "CCOc1cccc(-c2nc(-c3ccc(O)c(O)c3)cs2)c1", "CC50": 21.2}, {"smiles": "Oc1ccc(-c2csc(Cc3cc4ccccc4[nH]3)n2)cc1O", "CC50": 15.5}, {"smiles": "COc1ccc(CCCNc2c3ccccc3nc3ccccc23)cc1OC", "CC50": 21.8}, {"smiles": "Cc1nc(NCCc2ccc(O)c(O)c2)c2c3c(sc2n1)CCC3", "CC50": 43.7}, {"smiles": "Cc1ccc(-c2nc(-c3ccc(O)c(O)c3)cs2)cc1", "CC50": 24.5}, {"smiles": "O=c1cc(CN2CCN(Cc3ccccc3)CC2)c2ccc(O)c(O)c2o1", "CC50": 15.9}, {"smiles": "CC(C)(C)C(=O)OCc1nc(-c2ccc(O)c(O)c2)cs1", "CC50": 31.6}, {"smiles": "COc1ccc(CNc2c3ccccc3nc3ccccc23)cc1OC", "CC50": 5.37}, {"smiles": "Oc1ccc(CNc2c3ccccc3nc3ccccc23)cc1O", "CC50": 7.78}, {"smiles": "O=C1c2ccc3c4c(ccc(c24)C(=O)N1O)CC3", "CC50": 9.17}, {"smiles": "Oc1ccc(CCNC(c2ccccc2)c2ccccc2)cc1O", "CC50": 36.3}, {"smiles": "COc1ccc(CCNc2c3ccccc3nc3ccccc23)cc1", "CC50": 14.9}, {"smiles": "Oc1ccc(CCNc2cncc3ccccc23)cc1O", "CC50": 37.7}, {"smiles": "COc1cccc(CCNc2c3ccccc3nc3ccccc23)c1", "CC50": 8.75}, {"smiles": "NCc1cc2c3c(c(=O)oc2c(O)c1O)CCC3", "CC50": 29.2}]}]}
